Here are results for one compound from patent publication US8604059B2, “Thioxanthene derivatives for the treatment of infectious diseases” (BKG Pharma APS, priority 2009, dated 2013).

The test system of assay [1] is E. coli MDR clinical isolates. Kind of assay: FIC index, synergy with antibiotics (Table 4a). The format is cell-based. To be noted: 8 MDR E. coli, mean, compound at ¼ of MIC. As to the method:
The effect of the compounds was tested according to the methods described in WO2005/105145. In brief, cell growth was tested using the MIC susceptibility tests by use of the microdilution broth method in accordance to the NCCLS Guidelines (NCCLS Guidelines, Methods for Dilution Antimicrobial Susceptibility Tests for Bacteria That Grow Aerobically; Approved Standard, Sixth Edition, Volume 23; Number 2).
The Fractional Inhibitory Concentration (FIC) index were calculated for each compound as described in WO2005/105145. Synergy was defined for Fractional Inhibitory Concentration (FIC) indices less than 0.5
E. coli: 8 in vivo-selected multidrug resistant clinical isolates of E. coli. Resistant to tetracycline, beta-lactams, fluoroquinolones, chloramphenicol and aminoglycoside

Assay [2] deals with Enterococcus faecalis ENT 28 (VRE). Kind of assay: Mouse peritonitis model, neutropenic NMRI mice, enhancing effect with linezolid. The format is in vivo. The method, then:
A multiresistant clinical isolate of Enterococcus faecalis ENT 28 (VRE) from human urine was used.
Female NMRI mice (age, approximately 6 to 8 weeks; weight, 30±2 g) were used for the mouse […] peritonitis model (as described below).
In order to detect any synergistic effect, infected mice were treated with sub-therapeutic doses of each test compound alone or a mixture of the two compounds.
Bacterial suspensions were prepared from fresh overnight cultures (made from frozen stock cultures) on 5% blood agar plates as described above. The inoculum for the mouse peritonitis model was prepared immediately before use and was adjusted at 540 nm of giving a density of approximately 10^7 CFU/ml. The size of the inoculum was determined by viability counting on 5% blood agar.
Neutropenia was introduced by pretreating the mice with cyclophosphamide (6 mg daily for three days). […] Antibiotic therapy was initiated just after inoculation. Linezolid and compound 3 was administered subcutaneously in the neck region in a volume of 0.5 ml per dose. 3 mice were in each treatment group. Inoculated untreated control mice were included in all trials. (Method reference: Erlandsdottir et al; Antimicrob Agents Chemother. 2001 April; 45(4):1078-85)
The effects of the various treatment regimens were determined during 5 h of treatment by evaluation of bacterial counts in the peritoneal fluid. After the mice were killed, peritoneal washes were performed by injecting 2 ml of sterile saline intraperitoneally, followed by massage of the abdomen and then opening of the peritoneum to collect the fluid. Peritoneal fluids were immediately diluted 10-fold in saline, from which 20 μl was plated onto 5% blood agar plates in spots, with subsequent counting of colonies after incubation overnight at 35° C. The lowest detection levels for bacterial counts in blood and peritoneal fluid were 50 and 250 CFU/ml, respectively.

The next assay deals with S. epidermidis. Kind of assay: MIC, microdilution broth, multiresistant clinical isolates (Table 1A). The format is cell-based. To be noted: Staphylococcus epidermidis; ten multiresistant clinical isolates; read-out: Median MIC S. epidermidis. The method, then: Cell growth was tested using the Minimal Inhibitory Concentration (MIC) susceptibility tests by use of the microdilution broth method in accordance to the NCCLS Guidelines (NCCLS Guidelines, Methods for Dilution Antimicrobial Susceptibility Tests for Bacteria That Grow Aerobically; Approved Standard, Sixth Edition, Volume 23; Number 2). The minimum inhibitory concentration (MIC), is defined as the lowest concentration of drug which inhibits growth of the test organism, in the sense that no visible growth is detected (total inhibition of growth). In example 2, MIC of the compounds used on fungal microorgansims was determined from the IC90 measurements according to NCCLS Guidelines.
A log phase culture of bacteria was diluted with fresh pre-warmed Mueller-Hinton medium and adjusted to a defined OD at 600 nm in order to give a final concentration of 1×10^4-5 bacteria/ml medium. The bacterial culture was transferred to microtiter-plates and culture was added to each well. […] Trays were incubated at 37° C. by shaking in a robot analyzer, PowerWavex, software KC^4′ Kebo. Lab, Copenhagen, for 16 h and optical densities were measured at 600 nm during the incubation time in order to record growth curves. Wells containing bacterial culture without drug were used as controls to ensure correct inoculum size and bacterial growth during the incubation. Cultures were tested in order to detect contaminations. Each experiment was repeated in triplicate.
Ten strains in each test group.

Another assay deals with Candida albicans. The assay can be described thus: Synergy with fluconazole, broth microdilution NCCLS M27-A (Table 10). The assay is classed as cell-based. The method, then: The isolates were subcultured for 24 h on Sabouraud glucose agar before susceptibility testing. Broth microdilution tests were performed according to NCCLS document M27-A (Ref: National Commitee for Clinical Laboratory Standards. (1997). Reference Method for Broth Dilution Antifungal Susceptibility Testing of Yeasts: Approved Standard M27-A. NCCLS, Wayne, Pa.) Microtitre plates were read spectrophotometrically at 530 nm, after mixing the wells by pipetting to resuspend yeast sediments. […] The Fractional Inhibitory Concentration (FIC) was calculated for the anti-infective agent alone and in combination with compound 3 and 4 (see table 4) as described above. Synergy was defined as a FIC index of <0.5.

[3] abbreviates: treatment 0 and 2 hours, sampling 5 hours, sub-therapeutic doses as in Table 9, individual mice.

Values after ≈ are worked out from the molar mass of the structure shown. Values joined by “and” are separate entries in the source; they are usually repeats but may differ in a detail not shown here. Identical values can stand only once.

For `Clc1ccc2c(c1)/C(=C/CCC1CCNCC1)c1ccccc1S2` [Compound 3], the FIC index stood at 0.44 in assay [1] (with Ampicillin); 0.44 in assay [1] (with Ciprofloxacin); 0.44 in assay [1] (with Gentamycin); 0.44 in assay [1] (with Tetracycline); 0.28 with Candida albicans (in combination with fluconazole). The “Effect on the infection / bacteria in mouse peritoneum” value in assay [2] (sub-therapeutic dose alone) is reported as “did not affect the bacteria”. For the same compound, the score at sampling in assay [2] (treatment 0 and 2 hours, sampling 5 hours, Linezolid 1 mg/ml 0.5 ml, Compound 3 0.1 mg/ml 0.5, combination Linezolid 2 mg/ml (0.25 ml) and compound 3 0.2 mg/ml (0.25 ml), individual mice) was 1 and 2 (2×). In addition, the Cfu/ml peritoneum in assay [2] (setting [3]) is 2.35E+09 Cfu/ml and 2.63E+09 Cfu/ml and 3.15E+09 Cfu/ml. Moreover, the “log (cfu/ml) peritoneum” value in assay [2] (setting [3]) was 9.37 log (cfu/ml) and 9.42 log (cfu/ml) and 9.50 log (cfu/ml). Further, the MIC turned out to be 1 µg/mL (≈ 2.81 µM) in the assay with S. epidermidis and 1 µg/mL with Candida albicans (Candida albicans, compound alone, read-out: MIC Compound).
